Format in all cases: toxicity, cell-based
For one data set, the system named is HEK-293T. The data set can be described thus: Incucyte cell viability with HEK293T. The following applies: human, 10 µM, compound concentration 10 uM.
A further data set has as its system Fibroblast. The data set can be described thus: Incucyte cell viability with human fibroblast. The following applies: 10 µM, compound concentration 10 uM.
Another data set has as its system U2OS. In words: Incucyte cell viability with U2OS. The settings on record: human, 10 µM, compound concentration 10 uM.
Setting [1] is: 6 h, replicate number 2, timepoint 6 hours.
[2] abbreviates: 12 h, replicate number 2, timepoint 12 hours.
Setting [3] is: 18 h, replicate number 2, timepoint 18 hours.
Setting [4] is: 24 h, replicate number 2, timepoint 24 hours.
Setting [5] is: 18 h, replicate number 1, timepoint 18 hours.
[6] abbreviates: 24 h, replicate number 1, timepoint 24 hours.
[7] abbreviates: 0 h, replicate number 1, timepoint 0 hours.
[8] abbreviates: 0 h, replicate number 2, timepoint 0 hours.
[9] abbreviates: 6 h, replicate number 1, timepoint 6 hours.
The mark [10] stands for this setting: 12 h, replicate number 1, timepoint 12 hours.
Note: unitless GR value; below 1 slowed growth and below 0 cell loss.

In the case of `CN(C)[C@H]1CN(C2CCc3cccc(F)c32)C[C@@H]1c1ccc(N2CCN(S(C)(=O)=O)CC2)cc1` (stereo partly specified), the “Growth Rate” value is given as 0.35 with HEK-293T (setting [1]); 0.71 in the data set on HEK-293T (setting [2]); 0.89 in the data set on HEK-293T (setting [3]); 0.8 in the data set with HEK-293T (setting [4]); 0.88 in the data set with Fibroblast (setting [1]); 0.68 in the data set with Fibroblast (setting [5]). Besides, the “Growth Rate” value is given as 0.75 in the data set on Fibroblast (setting [6]); -0.44 with U2OS (setting [7]); -0.68 with U2OS (setting [8]); 0.58 with U2OS (setting [9]); 0.61 in the data set on U2OS (setting [1]); 0.63 in the data set on U2OS (setting [10]). Also, the “Growth Rate” value in the data set on U2OS (setting [2]) is reported as 0.83; in the data set on U2OS (setting [5]), 0.87; in the data set on U2OS (setting [3]) it was 0.9; in the data set on U2OS (setting [6]), 0.97; in the data set with U2OS (setting [4]), 0.98.

On to `N[C@@H](CCP(=O)(O)O)C(=O)O`, for which the “Growth Rate” value with HEK-293T (setting [7]) is 0.99; in the data set on HEK-293T (setting [1]), 0.79; in the data set on HEK-293T (setting [2]), 0.88; in the data set on HEK-293T (setting [4]) it was 0.78; with Fibroblast (setting [9]) it was -0.06; in the data set on Fibroblast (setting [10]), 0.45. Moreover, the “Growth Rate” value in the data set with U2OS (setting [8]) is listed as -1; in the data set with U2OS (setting [9]), 0.67; with U2OS (setting [10]), 0.39; in the data set on U2OS (setting [5]), 0.86; with U2OS (setting [3]), 0.78; with U2OS (setting [4]), 0.97.

Consider `Cc1ccccc1C(=O)Nc1ccc(C(=O)N2CCCC(N(C)C)c3ccccc32)cc1.Cl` (stereo unspecified), for which the “Growth Rate” value in the data set on HEK-293T (setting [9]) is -0.55; with HEK-293T (setting [1]), -0.44; in the data set on HEK-293T (setting [10]), -0.32; in the data set with HEK-293T (setting [2]), -0.03; in the data set on HEK-293T (setting [5]) it was -0.11; in the data set on HEK-293T (setting [3]) it was 0.08. In addition, the “Growth Rate” value in the data set with HEK-293T (setting [6]) is reported as 0.1; in the data set with HEK-293T (setting [4]), 0.22; in the data set with Fibroblast (setting [9]), -0.99; in the data set with Fibroblast (setting [1]), -0.65; with Fibroblast (setting [10]) it was -0.85; with Fibroblast (setting [2]) it was -0.38. In addition, the “Growth Rate” value in the data set with Fibroblast (setting [5]) is given as -0.63; in the data set with Fibroblast (setting [3]) it was -0.1; in the data set on Fibroblast (setting [6]), -0.44; in the data set on Fibroblast (setting [4]), 0.07; in the data set with U2OS (setting [7]), 0.36; with U2OS (setting [9]), 0.05. For the same molecule, the “Growth Rate” value is listed as -0.11 in the data set on U2OS (setting [1]); -0.03 in the data set on U2OS (setting [10]); -0.22 with U2OS (setting [2]); -0.06 with U2OS (setting [5]); -0.09 with U2OS (setting [3]); -0.11 in the data set with U2OS (setting [6]). Besides, the “Growth Rate” value in the data set with U2OS (setting [4]) is given as -0.08.

Take `CCN(Cc1ccncc1)C(=O)C(CO)c1ccccc1` (stereo unspecified) [TROPICAMIDE]: the “Growth Rate” value in the data set on HEK-293T (setting [7]) was 0.72; with HEK-293T (setting [9]) it was 0.92; in the data set with HEK-293T (setting [10]) it was 0.97; in the data set with HEK-293T (setting [2]) it was 0.95; in the data set with HEK-293T (setting [5]), 0.93; in the data set with HEK-293T (setting [3]), 0.83. In addition, the “Growth Rate” value was 0.88 in the data set with HEK-293T (setting [6]); 1 in the data set with HEK-293T (setting [4]); 0.46 in the data set with Fibroblast (setting [7]); -0.24 with Fibroblast (setting [8]); 0.73 in the data set on U2OS (setting [7]); 0.44 in the data set with U2OS (setting [8]). The “Growth Rate” value in the data set on U2OS (setting [9]) is recorded as 0.58; in the data set on U2OS (setting [2]) it was 0.99; with U2OS (setting [3]) it was 0.92.

With `CSCC[C@H](NC=O)C(=O)N[C@@H](CC(C)C)C(=O)N[C@@H](Cc1ccccc1)C(=O)O`, the “Growth Rate” value was found to be 0.95 in the data set on HEK-293T (setting [7]); 0.68 in the data set on HEK-293T (setting [8]); 0.85 with HEK-293T (setting [1]); 1 in the data set on HEK-293T (setting [10]); 0.9 with HEK-293T (setting [2]); 0.78 with HEK-293T (setting [5]). Also, the “Growth Rate” value in the data set with HEK-293T (setting [6]) was determined as 0.82; with Fibroblast (setting [7]), 0.43; with Fibroblast (setting [8]), 0.65; in the data set on Fibroblast (setting [9]), 0.81; in the data set with Fibroblast (setting [1]), 0.42; in the data set with Fibroblast (setting [10]), 0.83. Also, the “Growth Rate” value turned out to be 0.46 in the data set on Fibroblast (setting [2]); 0.58 in the data set on Fibroblast (setting [5]); 0.69 in the data set on Fibroblast (setting [3]); 0.27 with Fibroblast (setting [6]); 0.36 in the data set on Fibroblast (setting [4]); 0.44 in the data set with U2OS (setting [1]). For the same molecule, the figures for the “Growth Rate” value with U2OS (setting [2]), in the data set with U2OS (setting [3]) and with U2OS (setting [4]) were 0.83, 0.92 and 0.97, respectively.

Take `C[C@@H](O[C@H]1OCCN(Cc2n[nH]c(=O)[nH]2)[C@H]1c1ccc(F)cc1)c1cc(C(F)(F)F)cc(C(F)(F)F)c1` [APREPITANT]: the “Growth Rate” value amounted to 0.91 in the data set with HEK-293T (setting [9]); 0.66 with HEK-293T (setting [1]); 0.57 in the data set with HEK-293T (setting [10]); 0.97 in the data set on HEK-293T (setting [2]); 0.77 in the data set with HEK-293T (setting [5]); 0.84 in the data set with HEK-293T (setting [3]). In addition, the “Growth Rate” value in the data set on HEK-293T (setting [6]) is given as 0.74; in the data set with Fibroblast (setting [9]) it was 0.71; in the data set with Fibroblast (setting [1]), -0.37; with Fibroblast (setting [10]) it was 0.39; in the data set on Fibroblast (setting [2]), -0.12; with Fibroblast (setting [5]), 0.18. Besides, the “Growth Rate” value in the data set with Fibroblast (setting [3]) was 0.17; in the data set with Fibroblast (setting [6]), 0.28; with Fibroblast (setting [4]), 0.5; in the data set on U2OS (setting [7]), -0.52; in the data set on U2OS (setting [8]), -1; with U2OS (setting [9]) it was 0.29. Also, the “Growth Rate” value in the data set with U2OS (setting [1]) amounted to 0.58; in the data set with U2OS (setting [2]), 0.65; in the data set on U2OS (setting [5]), 0.9; with U2OS (setting [3]), 0.69; in the data set on U2OS (setting [4]), 0.79.

For `OCCCNc1cc(-c2ccnc(Nc3cccc(Cl)c3)n2)ccn1`, the “Growth Rate” value in the data set on HEK-293T (setting [9]) is on record as -0.65; in the data set with HEK-293T (setting [1]) it was -0.7; with HEK-293T (setting [10]), -0.52; with HEK-293T (setting [2]), -0.62; with HEK-293T (setting [5]), -0.38; in the data set with HEK-293T (setting [3]) it was -0.46. Moreover, the “Growth Rate” value with HEK-293T (setting [6]) is -0.29; with HEK-293T (setting [4]) it was -0.38; in the data set with Fibroblast (setting [7]) it was -0.42; with Fibroblast (setting [8]) it was -0.55; with Fibroblast (setting [9]), -0.19; with Fibroblast (setting [1]), 0.11. Further, the “Growth Rate” value was -0.15 in the data set with Fibroblast (setting [10]); -0.06 with Fibroblast (setting [2]); -0.2 in the data set with Fibroblast (setting [5]); -0.09 with Fibroblast (setting [3]); -0.02 with Fibroblast (setting [6]); -0.06 in the data set with Fibroblast (setting [4]). The “Growth Rate” value is recorded as -0.27 with U2OS (setting [7]); -0.28 in the data set with U2OS (setting [8]); 0.44 in the data set with U2OS (setting [9]); 0.44 with U2OS (setting [10]); 0.56 in the data set on U2OS (setting [2]); 0.26 with U2OS (setting [5]). The figures for the “Growth Rate” value in the data set with U2OS (setting [3]), with U2OS (setting [6]) and in the data set on U2OS (setting [4]) were 0.36, 0.23 and 0.24, respectively.

As to `CC(C)C[C@@H](NC(=O)[C@H](Cc1ccccc1)NC(=O)CNC(=O)[C@@H](C)NC(=O)[C@@H](N)Cc1ccc(O)cc1)C(=O)O` [DADLE], the “Growth Rate” value was 0.71 with HEK-293T (setting [7]); 0.5 in the data set on HEK-293T (setting [8]); 0.4 in the data set on HEK-293T (setting [9]); 0.61 in the data set with HEK-293T (setting [10]); 0.72 with HEK-293T (setting [5]); 1 in the data set with HEK-293T (setting [3]). Moreover, the “Growth Rate” value in the data set with HEK-293T (setting [6]) is recorded as 0.8; with HEK-293T (setting [4]), 0.91; in the data set with Fibroblast (setting [7]) it was 0.72; in the data set with Fibroblast (setting [8]), -0.04; in the data set with Fibroblast (setting [10]), 0.89; in the data set on U2OS (setting [8]) it was 0.25. The “Growth Rate” value came out at 0.82 with U2OS (setting [1]), 0.93 with U2OS (setting [2]), 0.98 in the data set on U2OS (setting [3]) and 0.99 with U2OS (setting [4]).

Consider `Br.Br.N=C(N)NCCSC(=N)N`, for which the “Growth Rate” value with HEK-293T (setting [9]) was 0.74; with HEK-293T (setting [10]), 0.76; in the data set with HEK-293T (setting [2]), 0.86; with HEK-293T (setting [5]), 0.98; in the data set on HEK-293T (setting [3]), 0.92; with HEK-293T (setting [6]) it was 1. Besides, the “Growth Rate” value in the data set with HEK-293T (setting [4]) amounted to 0.81; with Fibroblast (setting [8]), 0.9; in the data set on Fibroblast (setting [9]), 0.23; in the data set on Fibroblast (setting [1]) it was 0.98; with Fibroblast (setting [10]), 0.19; in the data set on Fibroblast (setting [5]), 0.54. Moreover, the “Growth Rate” value with Fibroblast (setting [6]) is 0.49; in the data set on U2OS (setting [7]), -0.2; in the data set with U2OS (setting [8]), 0.56; in the data set with U2OS (setting [1]), 0.98; in the data set with U2OS (setting [10]) it was 0.88; with U2OS (setting [2]), 0.99. Further, the results for the “Growth Rate” value in the data set with U2OS (setting [5]) and with U2OS (setting [6]) were 0.96 and 0.37, respectively.

The values above are taken from ChEMBL document CHEMBL5058564, “EUbOPEN Chemogenomics Library 2 (Incucyte)” (2022).
